Assay results from patent publication US11730720B2, “ALK5 inhibitors” (THERAVANCE BIOPHARMA R&D IP, LLC, priority 2018, dated 2023).

Columns and labels:
[1] = target: T1, recombinant human ALK5 (TGF-βR1) protein (Homo sapiens, UniProt P36897); assay: Biochemical ALK5 (TGF-βR1) assay to measure pKi (LANCE Ultra ULight kinase assay); settings: apparent pKi, converted from pIC50 using the Cheng-Prusoff equation
T1 construct: purchased Life Technologies PR9075A
T1 sequence (P36897 34-503): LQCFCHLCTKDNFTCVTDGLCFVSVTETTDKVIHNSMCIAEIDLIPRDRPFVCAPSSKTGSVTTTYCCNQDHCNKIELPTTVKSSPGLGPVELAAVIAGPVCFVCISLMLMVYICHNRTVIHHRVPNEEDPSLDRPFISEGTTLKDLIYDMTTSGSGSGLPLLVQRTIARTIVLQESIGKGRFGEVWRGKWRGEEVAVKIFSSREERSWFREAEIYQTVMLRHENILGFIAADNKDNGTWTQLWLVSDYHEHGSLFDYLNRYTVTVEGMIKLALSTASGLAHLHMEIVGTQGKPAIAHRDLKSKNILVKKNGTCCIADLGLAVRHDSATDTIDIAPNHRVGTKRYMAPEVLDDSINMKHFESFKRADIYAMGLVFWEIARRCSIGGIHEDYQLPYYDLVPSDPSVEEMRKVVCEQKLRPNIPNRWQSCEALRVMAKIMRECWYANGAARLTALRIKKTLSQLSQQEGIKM
Procedure, shortened: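 TR-FRET kinase format: compound dose range 10 μM–25 pM equilibrated 60 min with human ALK5 and ULight-labelled topoisomerase 2α peptide in HEPES/MgCl2 buffer pH 7.5 with DTT. Reaction started with ATP (125 μM stock, 5× final), 60 min at 37° C, stopped with EDTA/Eu-anti-phospho antibody; pKi derived from pIC50 via Cheng-Prusoff.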

[2] = test system: TGF-β-stimulated SMAD3 phosphorylation in BEAS-2B cells; assay: Cellular ALK5 potency assay, inhibition of TGF-β stimulated pSMAD3 formation in BEAS-2B cells; format: cell-based; settings: Homo sapiens, inhibition of TGF-β (10 ng/mL) stimulated pSMAD3 formation, 1 hour compound incubation, read-out: BEAS2B pIC50 (converted)
Procedure, shortened: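 Phospho-SMAD3 was quantified by AlphaLISA in lysates of human lung epithelial BEAS-2B cells. Compound was added 1 h (37 °C, HEPES/BSA-supplemented HBSS) before a 30 min challenge with 10 ng/mL TGF-β. Values are pIC50 relative to stimulated cells without compound.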

| SMILES | Ki [1] [nM] | IC50 [2] [nM] |
| --- | --- | --- |
| O=C(O)CC1CNCCN1CCNc1cnc2ccc(-c3nc[nH]c3-c3cc(Cl)ccc3F)nc2c1 (stereo not drawn) [Compound 2-34, 2-[1-[2-[[6-[5-(5-chloro-2-fluoro-phenyl)-1H-imidazol-4-yl]-1,5-naphthyridin-3-yl]amino]ethyl]piperazin-2-yl]acetic acid] | 0.0398 to 0.316 | 200 to 1260 |
| COC(=O)CC1CNCCN1CCNc1cnc2ccc(-c3nc[nH]c3-c3cc(Cl)ccc3F)nc2c1 (stereo not drawn) [Compound 2-35, methyl 2-[1-[2-[[6-[5-(5-chloro-2-fluoro-phenyl)-1H-imidazol-4-yl]-1,5-naphthyridin-3-yl]amino]ethyl]piperazin-2-yl]acetate] | 0.0398 to 0.316 | 25.1 to 158 |
| COC(=O)CC1CN(CCNc2cnc3ccc(-c4nc[nH]c4-c4cc(Cl)ccc4F)nc3c2)CCN1 (stereo not drawn) [Compound 2-36, methyl 2-[4-[2-[[6-[5-(5-chloro-2-fluoro-phenyl)-1H-imidazol-4-yl]-1,5-naphthyridin-3-yl]amino]ethyl]piperazin-2-yl]acetate] | 0.0398 to 0.316 | 25.1 to 158 |
| Cc1oc(=O)oc1CN1CCN(c2cnc3ccc(-c4nc[nH]c4-c4cc(Cl)ccc4F)nc3c2)CC1 [Compound 2-37, 4-[[4-[6-[5-(5-chloro-2-fluoro-phenyl)-1H-imidazol-4-yl]-1,5-naphthyridin-3-yl]piperazin-1-yl]methyl]-5-methyl-1,3-dioxol-2-one] | 0.0398 to 0.316 | 200 to 1260 |
| CCOC(=O)[C@H]1CN(c2cnc3ccc(-c4nc[nH]c4-c4cc(Cl)ccc4F)nc3c2)CCN1 [Compound 2-38, ethyl (2R)-4-[6-[5-(5-chloro-2-fluoro-phenyl)-1H-imidazol-4-yl]-1,5-naphthyridin-3-yl]piperazine-2-carboxylate] | 3.98 to 31.6 | 25.1 to 158 |
| CC(C)N1CCN(CCNc2cnc3ccc(-c4c(-c5cc(Cl)ccc5F)nc5ccccn45)nc3c2)CC1 [Compound 3-1, 6-(2-(5-chloro-2-fluorophenyl)imidazo[1,2-a]pyridin-3-yl)-N-(2-(4-isopropylpiperazin-1-yl)ethyl)-1,5-naphthyridin-3-amine] | 0.0398 to 0.316 | 25.1 to 158 |
| Fc1ccc(Cl)cc1-c1nc2ccccn2c1-c1ccc2ncc(N3CCNCC3)cc2n1 [Compound 3-2, 2-(2-(5-chloro-2-fluorophenyl)imidazo[1,2-a]pyridin-3-yl)-7-(piperazin-1-yl)-1,5-naphthyridine] | 0.0398 to 0.316 | 200 to 1260 |
| Fc1ccc(Cl)cc1-c1nc2ccccn2c1-c1ccc2ncc(N3CCCNCC3)cc2n1 [Compound 3-3, 2-[2-(5-chloro-2-fluoro-phenyl)imidazo[1,2-a]pyridin-3-yl]-7-(1,4-diazepan-1-yl)-1,5-naphthyridine] | 0.0398 to 0.316 | 25.1 to 158 |
| CN1CCN(C2CCN(c3cnc4ccc(-c5c(-c6cc(Cl)ccc6F)nc6ccccn56)nc4c3)CC2)CC1 [Compound 3-5, 2-[2-(5-chloro-2-fluoro-phenyl)imidazo[1,2-a]pyridin-3-yl]-7-[4-(4-methylpiperazin-1-yl)-1-piperidyl]-1,5-naphthyridine] | 0.0398 to 0.316 | 200 to 1260 |
| Fc1ccc(Cl)cc1-c1nc2ccccn2c1-c1ccc2ncc(-c3nnn4c3CNCC4)cc2n1 [Compound 3-6, 2-(2-(5-chloro-2-fluorophenyl)imidazo[1,2-a]pyridin-3-yl)-7-(4,5,6,7-tetrahydro-[1,2,3]triazolo[1,5-a]pyrazin-3-yl)-1,5-naphthyridine] | 0.0398 to 0.316 | 25.1 to 158 |
| Fc1ccc(Cl)cc1-c1nc2ccccn2c1-c1ccc2ncc(-c3cnn4c3CNCC4)cc2n1 [Compound 3-7, 2-[2-(5-chloro-2-fluoro-phenyl)imidazo[1,2-a]pyridin-3-yl]-7-(4,5,6,7-tetrahydropyrazolo[1,5-a]pyrazin-3-yl)-1,5-naphthyridine] | 0.0398 to 0.316 | 25.1 to 158 |
| Fc1ccc(Cl)cc1-c1nc2ccccn2c1-c1ccc2ncc(-c3cnc4n3CCNC4)cc2n1 [Compound 3-8, 2-[2-(5-chloro-2-fluoro-phenyl)imidazo[1,2-a]pyridin-3-yl]-7-(5,6,7,8-tetrahydroimidazo[1,2-a]pyrazin-3-yl)-1,5-naphthyridine] | 0.0398 to 0.316 | 25.1 to 158 |
| Fc1ccc(Cl)cc1-c1nc2ccccn2c1-c1ccc2ncc(-c3nc4n(n3)CCNC4)cc2n1 [Compound 3-9, 2-[2-(5-chloro-2-fluoro-phenyl)imidazo[1,2-a]pyridin-3-yl]-7-(5,6,7,8-tetrahydro-[1,2,4]triazolo[1,5-a]pyrazin-2-yl)-1,5-naphthyridine] | 0.0398 to 0.316 | 25.1 to 158 |
| Fc1ccc(Cl)cc1-c1nc2ccccn2c1-c1ccc2ncc(-c3cn[nH]c3)cc2n1 [Compound 3-10, 2-[2-(5-chloro-2-fluoro-phenyl)imidazo[1,2-a]pyridin-3-yl]-7-(1H-pyrazol-4-yl)-1,5-naphthyridine] | 0.398 to 3.16 | 1580 to 10000 |
| Fc1ccc(Cl)cc1-c1nnn(Cc2ccccc2)c1-c1ccc2ncccc2n1 [Compound 4-1, 2-(1-benzyl-4-(5-chloro-2-fluorophenyl)-1H-1,2,3-triazol-5-yl)-1,5-naphthyridine] | 0.398 to 3.16 | 200 to 1260 |
| COC(=O)c1cnc2ccc(-c3c(-c4cc(Cl)ccc4F)nnn3Cc3ccccc3)nc2c1 [Compound 4-2, methyl 6-[3-benzyl-5-(5-chloro-2-fluoro-phenyl)triazol-4-yl]-1,5-naphthyridine-3-carboxylate] | 3.98 to 31.6 | 200 to 1260 |
| COC(=O)c1cnc2ccc(-c3[nH]nnc3-c3cc(Cl)ccc3F)nc2c1 [Compound 5-1, methyl 6-(4-(5-chloro-2-fluorophenyl)-1H-1,2,3-triazol-5-yl)-1,5-naphthyridine-3-carboxylate] | 0.398 to 3.16 | 25.1 to 158 |
| Fc1ccc(Cl)cc1-c1[nH]nnc1-c1ccc2ncc(-c3c[nH]nc3C(F)(F)F)cc2n1 [Compound 5-2, 2-(5-(5-chloro-2-fluorophenyl)-1H-1,2,3-triazol-4-yl)-7-(3-(trifluoromethyl)-1H-pyrazol-4-yl)-1,5-naphthyridine] | 3.98 to 31.6 | 25.1 to 158 |
| CC(C)N1CCN(CCNc2cnc3ccc(-c4c[nH]nc4-c4cc(Cl)c(F)cc4F)nc3c2)CC1 [Compound 6-1, 6-(3-(5-chloro-2,4-difluorophenyl)-1H-pyrazol-4-yl)-N-(2-(4-isopropylpiperazin-1-yl)ethyl)-1,5-naphthyridin-3-amine] | 0.0398 to 0.316 | 25.1 to 158 |
| CN1CCN(CCNc2cnc3ccc(-c4c[nH]nc4-c4cc(Cl)c(F)cc4F)nc3c2)CC1 [Compound 6-2, 6-[3-(5-chloro-2,4-difluoro-phenyl)-1H-pyrazol-4-yl]-N-[2-(4-methylpiperazin-1-yl)ethyl]-1,5-naphthyridin-3-amine] | 0.0398 to 0.316 | ≤ 20 |
| CCN1CCN(CCNc2cnc3ccc(-c4c[nH]nc4-c4cc(Cl)c(F)cc4F)nc3c2)CC1 [Compound 6-3, 6-[3-(5-chloro-2,4-difluoro-phenyl)-1H-pyrazol-4-yl]-N-[2-(4-ethylpiperazin-1-yl)ethyl]-1,5-naphthyridin-3-amine] | 0.0398 to 0.316 | ≤ 20 |
| Fc1cc(F)c(-c2n[nH]cc2-c2ccc3ncc(NCC4CN5CCN4CC5)cc3n2)cc1Cl (stereo not drawn) [Compound 6-4, 6-[3-(5-chloro-2,4-difluoro-phenyl)-1H-pyrazol-4-yl]-N-(1,4-diazabicyclo[2.2.2]octan-2-ylmethyl)-1,5-naphthyridin-3-amine] | 0.0398 to 0.316 | 25.1 to 158 |
| CC1(C)CCCN1CCNc1cnc2ccc(-c3c[nH]nc3-c3cc(Cl)c(F)cc3F)nc2c1 [Compound 6-5, 6-[3-(5-chloro-2,4-difluoro-phenyl)-1H-pyrazol-4-yl]-N-[2-(2,2-dimethylpyrrolidin-1-yl)ethyl]-1,5-naphthyridin-3-amine] | 0.0398 to 0.316 | 25.1 to 158 |
| Fc1cc(F)c(-c2n[nH]cc2-c2ccc3ncc(-c4cn[nH]c4)cc3n2)cc1Cl [Compound 6-6, 2-[3-(5-chloro-2,4-difluoro-phenyl)-1H-pyrazol-4-yl]-7-(1H-pyrazol-4-yl)-1,5-naphthyridine] | 0.0398 to 0.316 | ≤ 20 |
| Fc1cc(F)c(-c2n[nH]cc2-c2ccc3ncc(NCCN4CCCC4)cc3n2)cc1Cl [Compound 6-7, 6-[3-(5-chloro-2,4-difluoro-phenyl)-1H-pyrazol-4-yl]-N-(2-pyrrolidin-1-ylethyl)-1,5-naphthyridin-3-amine] | 0.398 to 3.16 | 25.1 to 158 |
| Fc1cc(F)c(-c2n[nH]cc2-c2ccc3ncc(NCC4CCCCN4)cc3n2)cc1Cl (stereo not drawn) [Compound 6-8, 6-[3-(5-chloro-2,4-difluoro-phenyl)-1H-pyrazol-4-yl]-N-(2-piperidylmethyl)-1,5-naphthyridin-3-amine] | 0.398 to 3.16 | 25.1 to 158 |
| Fc1cc(F)c(-c2n[nH]cc2-c2ccc3ncc(NCCN4CCNCC4)cc3n2)cc1Cl [Compound 6-9, 6-[3-(5-chloro-2,4-difluoro-phenyl)-1H-pyrazol-4-yl]-N-(2-piperazin-1-ylethyl)-1,5-naphthyridin-3-amine] | 0.0398 to 0.316 | 25.1 to 158 |
